Reference: a melting point compilation (Tetko et al.; mined from patent text by program, amines drawn as free bases though some values may be those of a salt)

melting point [°C]	Compound
211	O=c1[nH]c(C2(F)CC2)nc2c1cnn2-c1ncc(C(F)(F)F)cc1Cl
90.1 to 91.3	CCOP(=O)(Cc1ccc2ccccc2c1O)OCC
102 to 104	CCOCN1C(C)=C(C(=O)OCC)C(c2cccc([N+](=O)[O-])c2)C(C(=O)OCCBr)=C1C (centres undefined)
143 to 144	CC(=O)SCC(Cc1ccccc1)C(=O)Nc1cc(Cl)ccc1C(=O)O (centres undefined)
186 to 187	CCN1C(=O)CCCc2c1ccc(Nc1ncc(Cl)c(Nc3ccc(N4CCN(C)CC4)cc3OC)n1)c2OC
225 to 226	Fc1ccc(Nc2nc(OCC3CCCCC3)c3[nH]cnc3n2)cc1Cl
157 to 158	COC(CCCNc1ccc(-c2nc(=O)c3ccccc3s2)cn1)OC
190 to 192	O=C1Cc2cccc(Nc3ccc(Cl)cc3)c2N1
120 to 122	CC(C)(C)c1cc(C(=O)Oc2ccc(C(=O)c3cc(C(C)(C)C)c(O)c(C(C)(C)C)c3)c(O)c2)cc(C(C)(C)C)c1O
151	OC1CSC(Oc2cc(-c3ccncc3)cc(F)c2F)C(O)C1O (centres undefined)
200 to 201	COC(=O)c1coc2cc(O)ccc12
123 to 124	O=c1[nH][nH]c(=O)c2c(O)c3c(Cl)c(Cl)c(Cl)cc3nc12
207	COc1cc2ncnc(-c3nnn[nH]3)c2cc1OC
130	CC(C)(C)NCCCOc1ccccc1C(=O)c1cccc2[nH]ccc12
65 to 70	Cc1c(OCCCO)ccnc1CO
282 to 283	CS(=O)(=O)c1cnc(NC(=O)c2ccccc2O)s1
225 to 228	COc1ccc(S(=O)(=O)N2C(=O)[C@@](c3ccccc3OC)(N3C[C@H](OC(=O)CCC(=O)O)C[C@H]3C(=O)N(C)C)c3cc(Cl)ccc32)c(OC)c1
118 to 120	O=C(CCl)Nc1sccc1C(O)c1ccccc1Cl (centres undefined)
177 to 178	COCCOCCOCC(=O)Nc1c(I)c(N)c(I)c(C(=O)O)c1I
193	CN(C)C(=O)c1ccc(Cl)c(C#N)c1
155 to 157	CC(c1oc2ccccc2c(=O)c1-c1cccc(F)c1)n1nc(-c2cccc(OC(F)(F)F)c2)c2c(N)ncnc21 (centres undefined)
155 to 156	Cc1nc(N2CCN(Cc3cccc(F)c3)C2=O)sc1C(=O)NCc1ccccc1
187 to 189	CC(C)(C)C1c2ccccc2-c2ccccc2N1S(=O)(=O)c1ccc(O)cc1 (centres undefined)
147 to 148	CCOC(=O)N[C@@H]1c2cc(C#N)ccc2OC(C)(C)[C@H]1O (relative stereo)

melting point [°C]	Compound
99 to 100	COC(=O)CCCC(=O)N(CCc1c[nH]c2ccccc12)CC1CC1
87 to 89	CCOC(=O)C1CCC(c2ccccc2)n2c(=O)n(CCCl)c(=O)n21 (centres undefined)
123	O=C(O)COc1cscc1Cl
150	CCC(=O)Nc1nc(C(Cl)(Cl)Cl)ns1
166 to 167	CCCCN(CC(O)C(Cc1ccccc1)NC(=O)C(CC(N)=O)NC(=O)NCc1ccccc1)C(=O)NC(C)(C)C (centres undefined)
203 to 205	N#Cc1cc(SC(F)(F)F)[nH]c1-c1ccc(Cl)cc1
160 to 162	CC(=O)Cc1cc2[nH]c(=O)oc2cc1Br
254 to 256	CC1CC(=O)NN=C1c1ccc(-n2ccc(=O)cc2)cc1 (centres undefined)
81	COc1cc(C=O)cc2c1OCCC2
171	CC(C)(C)c1ccc(C(=O)c2ccc3n2Cc2ccccc2N(C(=O)COc2ccc(Cl)cc2)C3)cc1
206 to 207	CC(=O)OCc1coc(-c2cccc(C3=Nc4ccc(-n5cccc5)cc4NC(=O)C3)c2)n1
180 to 181	O=C(O)COc1ccc2c(c1)Nc1ccccc1S2
151 to 152	Cc1oc(-c2ccccc2F)nc1CCOc1ccc(CN(O)C(N)=O)cc1
76 to 77	CCCCCCCC(=O)NCCCCO
227 to 230	CC(C)(C)OC(=O)c1c(N)sc2c1CCOC2CN1C(=O)c2ccccc2C1=O (centres undefined)
228 to 229	O=[N+]([O-])c1ccc2nc(-c3ccco3)[nH]c2c1
89 to 91	C[C@@H](Cc1ccc(OCC(=O)O)cc1)NS(=O)(=O)c1ccccc1
247 to 249	O=C1Cn2c(c(Br)c3ccccc32)-c2ccccc2N1
171 to 172	COc1cc(Nc2nccc(-c3ccc(OCc4ccccc4)cc3)n2)cc(OC)c1OC
77 to 79	CCOC(=O)C(=O)c1cc(O)c(O)c([N+](=O)[O-])c1
183 to 185	COC(=O)COc1ccc(F)c2c1c1c(n2Cc2ccccc2)CCCC1C(N)=O (centres undefined)
40 to 43	CCOC(=O)C1OC1c1ccc(OC)cc1 (centres undefined)
103 to 104	Cc1oc(-c2ccccc2)nc1CCc1ccc(CO)cc1
135 to 136	CCCCCC(CC(=O)Nc1cc(C(N)=O)ccc1C(C)(C)C)c1ccc(OCCCOCC)cc1OC (centres undefined)

melting point [°C]	Compound
239 to 243	COc1c(C(C)(C)C)cc(COc2cccc(C=C3SC(=S)NC3=O)c2)cc1C(C)(C)C
172 to 174	CCOCc1nc2c(N)nc(C)c(C)c2n1CCNC(=O)C(C)C
81 to 83	CCOC(=O)C(CC)Nc1ccc2ccccc2c1 (centres undefined)
154 to 155	COc1ccc(S(=O)(=O)NC(C)c2ccccc2-c2ccc(F)cc2F)cc1 (centres undefined)
259 to 260	CS(=O)(=O)c1ccc(Oc2cc(OCc3cccc(Cl)n3)c3[nH]c(C(N)=O)cc3c2)cc1
161	O=C(O)c1ccc(OCCCOc2ccccc2)cc1O
115 to 120	CC1(C)C=C(c2ccccn2)c2cc(-c3ccccc3)ccc2OC1
180	O=C(O)C(CCN1C(=O)c2ccccc2C1=O)CS(=O)(=O)c1ccc(-c2ccccc2)cc1 (centres undefined)
120 to 122	Clc1cnc2cccc(Cl)c2n1
48.6 to 50.2	CCCCOC(=O)CCCCCCCCCCCOCC(O)CNCCO (centres undefined)
59 to 62	COc1ccc(C2(C#Cc3cccc(NS(C)(=O)=O)c3)CCCC(=O)C2)cc1OC1CCCC1 (centres undefined)
126 to 130	Cc1ccc(-c2nnc(Cl)nc2-c2ccc(C)cc2)cc1
134 to 136	C#Cc1ccc(C#Cc2ccncc2)s1
279 to 280	CC(=O)Oc1cccc2c1C(=O)c1c(OC(C)=O)cc(-c3nc4ccccc4n3C)cc1C2=O
216 to 218	CCOC(=O)c1cnc(Nc2ccc(-n3cnc(C)c3)c(OC)c2)nc1-c1ccc(Cl)cc1
160 to 162	CC(C)c1cc(Cl)cc(C(C)C)c1NC(=O)NS(=O)(=O)c1cccc(C(C)(C)O)c1
73 to 74	C[C@@H]1CC(C)(C)C[C@@]2(C1)[C@@H](C)CC(=O)[C@]2(C)O (relative stereo)
158 to 159	CCCn1nc(Cc2ccc(-c3ccccc3-c3nnn(C(c4ccccc4)(c4ccccc4)c4ccccc4)n3)cc2)c(C(=O)OCC)c1C(C)C
46 to 48	CCCCCCCCCCCCCCCCCCN(C(=O)OC(C)(C)C)c1ccc(CCC(=O)O)cc1
146 to 147	CCCCOc1c(CNC(=O)OC(C)(C)C)n(CC(C)C)c(=O)c2ccc(-c3nc(C)c(C(=O)OCC)s3)cc12
131 to 133	CSc1cc(C)nc(SC)c1NC(=O)CCCSc1nc2ccccc2s1
270 to 274	Cc1cc(-c2ccc(OCc3ccncc3)cc2)cc2ccc(=O)[nH]c12
186 to 187	CC(=O)NC[C@H]1CN(c2ccc(C3CCN(C=O)CC3)c(F)c2)C(=O)O1
248 to 249	CC(C)Cc1[nH]nc2c(N)nc3ccccc3c12

melting point [°C]	Compound
108 to 109	Cc1c(C=CC=O)c2c(c(C)c1OCc1ccccc1)CC(C)(C)O2
95 to 98	CC=Cc1cccc(C(=O)C=Cc2ccccc2)c1O
95 to 95.5	CN(C)CCC1(c2ccccc2)Cc2ccccc2C(=O)O1 (centres undefined)
288 to 291	COc1cc(OS(C)(=O)=O)ccc1C1=NC2=NC=NC(=O)C2=N1
224	CCN(c1ccc(N2CCN(c3ccc(OC)cc3)CC2)cc1)c1nc(-c2ccccc2)cs1
207	Cn1c(C(F)(F)F)nn(Cc2c(Cl)ccc(C(=O)O)c2Cl)c1=O
223	CC(C)N=C1C(c2ccccc2)=C(c2ccccc2)C(c2ccccc2)=C1c1ccccc1
155 to 157	COc1ccnc(CSc2nc3cc4c(cc3[nH]2)OCO4)c1OC
78 to 80	CCCCCCCCCCCCCCCCCC(=O)CO
203 to 204	O=c1cc(C(F)(F)F)cc(-c2ccc(C(F)(F)F)cc2)[nH]1
126	COc1cc(NC(=O)N(c2ccc(N(C)C)cc2)C2CCCCCC2)c(OC(=O)[C@H](C)NC(=O)OCc2ccccc2)c(C(C)(C)C)c1
238	Cc1nn2c(C(F)(F)F)cc(-c3ccc(Cl)cc3)nc2c1C#N
126	CCOc1ccc(C2CCC3c4ccc(OCC)c(F)c4OC3C2)c(F)c1F (centres undefined)
81.5 to 83	CCCC/C(=C\C=C\C(=O)Oc1ccc([N+](=O)[O-])cc1)c1cccc(OC)c1
185 to 187	CCn1c(=O)n(C2OC(CO)C(O)C2O)c2nc(N)[nH]c(=O)c21 (centres undefined)
231 to 232	COc1ccc(C(=O)Nc2cc([N+](=O)[O-])ccc2Cl)cc1OC
139 to 140	CC(=O)SCC(C(=O)Nc1oc(CCC(=O)O)c2ccccc12)C(F)(F)F (centres undefined)
132 to 135	Nc1ccc(Oc2ccc([N+](=O)[O-])cc2)cn1
273 to 274	COc1ccc(Cc2nc3n(c2-c2ccccc2)CCS3)cc1
102 to 105	CC(C)(C)OC(=O)N1CCC(=CC(=O)NCc2ccc(F)c(F)c2)CC1
> 320	O=C(Nc1cccnc1)c1cc2ccnc(Cl)c2[nH]1
231 to 233	O=C(Nc1ccc(Cl)cc1)Nc1ccc2c(c1)OC(F)(F)O2

Compound	melting point [°C]
O=C(CCl)NCCOCCO	130 to 132
N#Cc1ccc(N2C(=O)[C@@H]3[C@H](O)CCN3C2=O)c2ccccc12 (relative stereo)	224 to 225
CCCCCCC(C)(C)c1cc(OC)c(C2=C[C@@H]3CC[C@@]2(C)C3(C)C)c(OC)c1	35 to 37
O=c1[nH]c2ccc(Cl)cc2n1C1CCNCC1	> 300
CN1CCN(c2ccc(N)cc2C(F)(F)F)CC1	121 to 123
